Test results taken from BindingDB's records for doi:10.1021/jm800797n (University of Tartu, 2009).

Key:
[1] = biological target: cAMP-dependent protein kinase catalytic subunit alpha (Bos taurus) (UniProt P00517); assay: The assay is based on the kinase-bound labeled fluorescent probe can be displaced by competitive inhibitors, which can be registered by measurement of the resulting change in fluorescence properties of the solution. The binding curves were fitted using GraphPad Prism version 4.03 using sigmoidal dose-respons; details: pH 7.5
[2] = biological target: cAMP-dependent protein kinase catalytic subunit alpha (Bos taurus) (UniProt P00517); assay: The IC50 values of the inhibitors corresponding to the concentration of the inhibitor decreasing the enzyme activity 50% were measured using fluorescent-labeled substrate. The phosphorylation reaction was initiated by the addition of ATP. At fixed time points, the reaction was analyzed by normal phase TLC. The visualization and quantification
[3] = biological target: RAC-gamma serine/threonine-protein kinase (Homo sapiens, UniProt Q9Y243); assay: Fluorometric TLC Kinase Assay
RAC-gamma serine/threonine-protein kinase, sequence (Q9Y243 whole entry): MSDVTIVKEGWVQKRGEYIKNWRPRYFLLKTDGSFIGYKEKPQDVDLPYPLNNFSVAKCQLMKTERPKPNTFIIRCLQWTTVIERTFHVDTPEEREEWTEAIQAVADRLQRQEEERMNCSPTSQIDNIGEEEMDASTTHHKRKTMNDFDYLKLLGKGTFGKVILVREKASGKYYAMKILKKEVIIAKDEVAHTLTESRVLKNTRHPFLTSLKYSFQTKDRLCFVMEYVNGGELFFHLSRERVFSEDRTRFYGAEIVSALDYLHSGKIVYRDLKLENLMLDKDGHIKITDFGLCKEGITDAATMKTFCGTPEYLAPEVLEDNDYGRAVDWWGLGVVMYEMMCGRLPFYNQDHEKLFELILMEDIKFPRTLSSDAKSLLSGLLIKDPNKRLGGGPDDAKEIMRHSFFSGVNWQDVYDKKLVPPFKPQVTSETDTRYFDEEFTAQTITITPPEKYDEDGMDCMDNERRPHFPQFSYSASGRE

Row | SMILES | Kd [1] | IC50 [2] | IC50 [3]
1 | O=S(=O)(NCCNC/C=C/c1ccc(Br)cc1)c1cccc2cnccc12 | 0.023 µM |  | 
2 | N=C(N)NCCC[C@@H](NC(=O)[C@@H](CCCNC(=N)N)NC(=O)[C@@H](CCCNC(=N)N)NC(=O)[C@@H](CCCNC(=N)N)NC(=O)[C@@H](CCCNC(=N)N)NC(=O)[C@@H](CCCNC(=N)N)NC(=O)CCCCCNC(=O)[C@H]1O[C@@H](n2cnc3c(N)ncnc32)[C@H](O)[C@@H]1O)C(N)=O |  | 0.0083 µM | 
3 | C[C@@H](NC(=O)CCCCCNC(=O)[C@@H]1C[C@@H](O)[C@H](n2cnc3c(N)ncnc32)C1)C(=O)NCCCCCC(=O)N[C@H](CCCNC(=N)N)C(=O)N[C@H](CCCNC(=N)N)C(N)=O [6-{[(1S,3R,4R)-3-(6-amino-9H-purin-9-yl)-4-hydroxycyclopentyl]formamido}-N-[(1R)-1-[(5-{[(1R)-4-carbamimidamido-1-{[(1R)-4-carbamimidamido-1-carbamoylbutyl]carbamoyl}butyl]carbamoyl}pentyl)carbamoyl]ethyl]hexanamide] |  |  | 2.04 µM
4 | NC(=O)[C@@H](CCCN=C(N)N)NC(=O)[C@@H](CCCN=C(N)N)NC(=O)[C@@H](CCCN=C(N)N)NC(=O)[C@@H](CCCN=C(N)N)NC(=O)[C@@H](CCCN=C(N)N)NC(=O)[C@@H](CCCN=C(N)N)NC(=O)CCCCCNC(=O)[C@@H]1C[C@@H](O)[C@H](n2cnc3c(N)ncnc32)C1 [6-{[(1S,3R,4R)-3-(6-amino-9H-purin-9-yl)-4-hydroxycyclopentyl]formamido}-N-[(1R)-4-carbamimidamido-1-{[(1R)-4-carbamimidamido-1-{[(1R)-4-carbamimidamido-1-{[(1R)-4-carbamimidamido-1-{[(1R)-4-carbamimidamido-1-{[(1R)-4-carbamimidamido-1-carbamoylbutyl]carbamoyl}butyl]carbamoyl}butyl]carbamoyl}butyl]carbamoyl}butyl]carbamoyl}butyl]hexanamide] |  | 0.00241 µM | 
5 | NC(=O)[C@H](Cc1ccc(C(=O)c2ccccc2)cc1)NC(=O)CCCCCNC(=O)[C@H]1O[C@@H](n2cnc3c(N)ncnc32)[C@H](O)[C@@H]1O [6-{[(2S,3S,4R,5R)-5-(6-amino-9H-purin-9-yl)-3,4-dihydroxyoxolan-2-yl]formamido}-N-[(1S)-2-(4-benzoylphenyl)-1-carbamoylethyl]hexanamide] | > 100 µM |  | 
6 | N=C(N)NCCC[C@@H](NC(=O)[C@@H](CCCNC(=N)N)NC(=O)[C@@H](CCCNC(=N)N)NC(=O)[C@@H](CCCNC(=N)N)NC(=O)[C@@H](CCCNC(=N)N)NC(=O)[C@@H](CCCNC(=N)N)NC(=O)CCCCCNC(=O)[C@@H](CCCCN)NC(=O)CCCCCNC(=O)[C@H]1O[C@@H](n2cnc3c(N)ncnc32)[C@H](O)[C@@H]1O)C(N)=O [(2R)-6-amino-2-(6-{[(2S,3S,4R,5R)-5-(6-amino-9H-purin-9-yl)-3,4-dihydroxyoxolan-2-yl]formamido}hexanamido)-N-(5-{[(1R)-4-carbamimidamido-1-{[(1R)-4-carbamimidamido-1-{[(1R)-4-carbamimidamido-1-{[(1R)-4-carbamimidamido-1-{[(1R)-4-carbamimidamido-1-{[(1R)-4-carbamimidamido-1-carbamoylbutyl]carbamoyl}butyl]carbamoyl}butyl]carbamoyl}butyl]carbamoyl}butyl]carbamoyl}butyl]carbamoyl}pentyl)hexanamide] | < 0.0005 µM |  | 
7 | NC(=O)[C@@H](CCCN=C(N)N)NC(=O)[C@@H](CCCN=C(N)N)NC(=O)[C@@H](CCCN=C(N)N)NC(=O)[C@@H](CCCN=C(N)N)NC(=O)[C@@H](CCCN=C(N)N)NC(=O)[C@@H](CCCN=C(N)N)NC(=O)CCCCCNCCNS(=O)(=O)c1cccc2cnccc12 [N-[(1R)-4-carbamimidamido-1-{[(1R)-4-carbamimidamido-1-{[(1R)-4-carbamimidamido-1-{[(1R)-4-carbamimidamido-1-{[(1R)-4-carbamimidamido-1-{[(1R)-4-carbamimidamido-1-carbamoylbutyl]carbamoyl}butyl]carbamoyl}butyl]carbamoyl}butyl]carbamoyl}butyl]carbamoyl}butyl]-6-{[2-(isoquinoline-5-sulfonamido)ethyl]amino}hexanamide] |  | 0.0053 µM | 0.0307 µM
